Earlier results as cited in PMC3085280 (Tetrahedron, 2009).

System: κ-opioid

## COC(=O)[C@@H]1C[C@H](OC(C)=O)C(=O)[C@H]2[C@@]1(C)CC[C@H]1C(=O)O[C@H](c3ccoc3)C[C@]21C [Compound 1, Salvinorin A]
  κ-opioid agonist activity: potent and selective κ-opioid agonist
